± gives the standard deviation of the averaged measurements.
Assays:
[1] = compound: C[C@]12CC[C@H](O)CC1=CC[C@@H]1[C@@H]2CC[C@]2(C)C(c3cccnc3)=CC[C@@H]12 [ABIRATERONE]; test: surviving fraction relative to DMSO-only wells; higher = less growth inhibition; conditions: exposure time: 5 days
Method in brief: (§1)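 In 384-well plates, 250–500 log-phase tumour cells per well were given 24 hours before five days of continuous exposure to inhibitors at 0.5, 1, 5, 10, 50, 100, 500 and 1000 nM. Surviving fraction is luminescence from CellTiter-Glo, normalised to the median of wells containing DMSO alone. Reading took place after 10 minutes at room temperature.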

[2] = compound: Cc1nc(Nc2ncc(C(=O)Nc3c(C)cccc3Cl)s2)cc(N2CCN(CCO)CC2)n1 [DASATINIB]; test: as above; conditions: exposure time: 5 days
Method in brief: as §1

Row | Test System | surviving fraction ([1]; 0.5 nM) | surviving fraction ([1]; 1 nM) | surviving fraction ([1]; 5 nM) | surviving fraction ([1]; 10 nM) | surviving fraction ([1]; 50 nM) | surviving fraction ([1]; 100 nM) | surviving fraction ([1]; 500 nM) | surviving fraction ([1]; 1000 nM) | surviving fraction ([2]; 0.5 nM) | surviving fraction ([2]; 1 nM) | surviving fraction ([2]; 5 nM) | surviving fraction ([2]; 10 nM) | surviving fraction ([2]; 50 nM) | surviving fraction ([2]; 100 nM) | surviving fraction ([2]; 500 nM) | surviving fraction ([2]; 1000 nM)
1 | PCI30 HEADNECK | 1.12 ± 0.065 | 1.03 ± 0.091 | 1.11 ± 0.018 | 1.12 ± 0.068 | 1.18 ± 0.071 | 1.04 ± 0.013 | 1.04 ± 0.11 | 1.03 ± 0.065 | 0.916 ± 0.015 | 0.888 ± 0.076 | 0.966 ± 0.05 | 0.98 ± 0.028 | 0.747 ± 0.017 | 0.665 ± 0.036 | 0.528 ± 0.019 | 0.421 ± 0.05
2 | SYO1 SYNOVIAL | 1.01 ± 0.048 | 1.03 ± 0.02 | 1.03 ± 0.014 | 1.01 ± 0.013 | 1.031 ± 0.0036 | 1.03 ± 0.029 | 1.01 ± 0.018 | 1.01 ± 0.062 | 0.777 ± 0.024 | 0.758 ± 0.041 | 0.651 ± 0.03 | 0.566 ± 0.07 | 0.415 ± 0.02 | 0.383 ± 0.026 | 0.351 ± 0.011 | 0.34 ± 0.017
3 | A549 LUNG | 1.04 ± 0.05 | 1.03 ± 0.059 | 1.05 ± 0.01 | 1.04 ± 0.045 | 1.1 ± 0.049 | 1.11 ± 0.019 | 1.08 ± 0.12 | 1.09 ± 0.087 | 0.915 ± 0.0066 | 0.9003 ± 0.0076 | 0.879 ± 0.02 | 0.859 ± 0.018 | 0.858 ± 0.033 | 0.8223 ± 0.0025 | 0.646 ± 0.028 | 0.631 ± 0.012
4 | HELA CERVIX | 1.08 ± 0.068 | 1.07 ± 0.037 | 1.1 ± 0.032 | 1.03 ± 0.023 | 1.2 ± 0.048 | 1.2 ± 0.062 | 1.23 ± 0.074 | 1.15 ± 0.055 | 0.937 ± 0.085 | 0.934 ± 0.057 | 0.948 ± 0.037 | 0.909 ± 0.029 | 1.02 ± 0.029 | 1.04 ± 0.011 | 1.04 ± 0.061 | 1.06 ± 0.037
5 | SJSA1 BONE | 1.04 ± 0.051 | 1.09 ± 0.086 | 1.13 ± 0.032 | 1.1 ± 0.026 | 1.11 ± 0.037 | 1.15 ± 0.031 | 1.1 ± 0.015 | 1.04 ± 0.073 | 1.23 ± 0.065 | 1.14 ± 0.044 | 1.16 ± 0.19 | 1.24 ± 0.1 | 0.0427 ± 0.0032 | 1.6 ± 0.093 | 1.7 ± 0.029 | 0.174 ± 0.019

From the supplement of paper PMC6045584
